# Read-outs that look alike come from different tables or passages of the source.
# Target: T1, human ERα (Homo sapiens, UniProt P03372)
# T1 sequence (P03372 1-595): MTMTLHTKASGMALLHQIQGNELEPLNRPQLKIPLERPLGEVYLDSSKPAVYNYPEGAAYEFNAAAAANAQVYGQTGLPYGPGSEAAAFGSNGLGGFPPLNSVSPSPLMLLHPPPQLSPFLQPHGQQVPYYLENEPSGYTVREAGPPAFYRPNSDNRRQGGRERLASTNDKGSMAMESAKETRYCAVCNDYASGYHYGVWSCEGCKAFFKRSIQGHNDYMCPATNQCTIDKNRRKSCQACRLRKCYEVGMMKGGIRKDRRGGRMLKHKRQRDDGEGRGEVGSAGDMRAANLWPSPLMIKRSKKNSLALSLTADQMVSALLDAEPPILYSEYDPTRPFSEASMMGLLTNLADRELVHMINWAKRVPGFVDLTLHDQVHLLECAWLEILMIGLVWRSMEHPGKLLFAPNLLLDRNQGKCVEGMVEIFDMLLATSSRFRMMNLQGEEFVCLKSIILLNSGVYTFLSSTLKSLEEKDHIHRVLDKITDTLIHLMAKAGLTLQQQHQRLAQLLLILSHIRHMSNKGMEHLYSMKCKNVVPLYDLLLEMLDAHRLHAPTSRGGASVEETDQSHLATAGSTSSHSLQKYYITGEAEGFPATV
# Experiment: NF-κB luciferase reporter (ER/NF-KB-luc) in Ad5-wt-hERα infected HAECT-1 cells
# Details: for IC50: ER/NF-KB-luc IC50, Ad5-wt-ER infected HAECT-1 cells, IL-1β
# [1] = HAECT1, read-out: ER/NF-KB-luc % E2, efficacy relative to the maximal inhibition observed with E2
# [2] = HAECT1, read-out: ER/NF-KB-luc % E2
Emax [1],IC50,SMILES,Emax [2]
74%,–,"CCCn1nc(-c2ccc(O)cc2O)c2ccc(O)cc21 [Example 1, 4-(6-hydroxy-1-propyl-1H-indazol-3-yl)benzene-1,3-diol]",–
85%,–,"Oc1ccc(-c2nn(-c3cccc(Cl)c3)c3cc(O)ccc23)c(O)c1 [Example 6, 4-[1-(3-chlorophenyl)-6-hydroxy-1H-indazol-3-yl]benzene-1,3-diol]",–
–,–,"Oc1ccc(-c2nn(-c3cccc(F)c3)c3cc(O)ccc23)c(O)c1 [Example 21, 4-[1-(3-fluorophenyl)-6-hydroxy-1H-indazol-3-yl]benzene-1,3-diol]",73%
73%,50 nM,"Oc1ccc(-c2nn(-c3ccccc3F)c3cc(O)ccc23)c(O)c1 [Example 22, 4-[1-(2-fluorophenyl)-6-hydroxy-1H-indazol-3-yl]benzene-1,3-diol]",–
83%,63 nM,"Oc1ccc(-c2nn(-c3ccc(F)c(Cl)c3)c3cc(O)ccc23)c(O)c1 [Example 24, 4-[1-(3-chloro-4-fluorophenyl)-6-hydroxy-1H-indazol-3-yl]benzene-1,3-diol]",–
112%,274 nM,"O=[N+]([O-])c1cccc(-n2nc(-c3ccc(O)cc3O)c3ccc(O)cc32)c1 [Example 25, 4-[6-hydroxy-1-(3-nitrophenyl)-1H-indazol-3-yl]benzene-1,3-diol]",–
101%,356 nM,"Oc1ccc(-c2nn(-c3cccc(C(F)(F)F)c3)c3cc(O)ccc23)c(O)c1 [Example 26, 4-{6-hydroxy-1-[3-(trifluoromethyl)phenyl]-1H-indazol-3-yl}benzene-1,3-diol]",–
96%,1030 nM,"CC(C)c1ccc(-n2nc(-c3ccc(O)cc3O)c3ccc(O)cc32)cc1 [Example 27, 4-[6-hydroxy-1-(4-isopropylphenyl)-1H-indazol-3-yl]benzene-1,3-diol]",–
86%,551 nM,"CS(=O)(=O)c1ccc(-n2nc(-c3ccc(O)cc3O)c3ccc(O)cc32)cc1 [Example 28, 4-{6-hydroxy-1-[4-(methylsulfonyl)phenyl]-1H-indazol-3-yl}benzene-1,3-diol]",–
120%,636 nM,"Oc1ccc(-c2nn(-c3ccc(Br)cc3)c3c(C(F)(F)F)cccc23)cc1 [Example 31, 4-[1-(4-bromophenyl)-7-(trifluoromethyl)-1H-indazol-3-yl]phenol]",–
91%,65 nM,"Oc1ccc(-c2nn(C3CCCCC3)c3c(C(F)(F)F)cccc23)cc1 [Example 32, 4-[1-cyclohexyl-7-(trifluoromethyl)-1H-indazol-3-yl]phenol]",–
–,–,"CCCn1nc(-c2ccc(O)cc2)c2cccc(C)c21 [Example 37, 4-(7-methyl-1-propyl-1H-indazol-3-yl)phenol]",95%
102%,190 nM,"CCCCCn1nc2c(Cl)cccc2c1-c1ccc(O)cc1 [Example 42, 4-[7-chloro-2-pentyl-2H-indazol-3-yl]phenol]",–
79%,–,"CCCn1nc(-c2ccc(O)cc2)c2cccc(Cl)c21 [Example 43, 4-(7-chloro-1-propyl-1H-indazol-3-yl)phenol]",–
77%,393 nM,"CCCn1nc2c(F)cccc2c1-c1ccc(O)cc1 [Example 54, 4-(7-fluoro-2-propyl-2H-indazol-3-yl)phenol]",–
158%,1880 nM,"Cc1cc(-c2nn(C3CCCC3)c3c(F)cccc23)ccc1O [Example 63, 4-(1-cyclopentyl-7-fluoro-1H-indazol-3-yl)-2-methylphenol]",–
65%,48 nM,"Oc1ccc(-c2nn(CC3CCCCC3)c3c(C(F)(F)F)cccc23)c(O)c1 [Example 67, 4-[1-(cyclohexylmethyl)-7-(trifluoromethyl)-1H-indazol-3-yl]benzene-1,3-diol]",–
74%,56 nM,"CC(C)Cn1nc(-c2ccc(O)cc2O)c2cccc(C(F)(F)F)c21 [Example 68, 4-[1-isobutyl-7-(trifluoromethyl)-1H-indazol-3-yl]benzene-1,3-diol]",–
76%,14 nM,"Oc1ccc(-c2nn(C3CCC3)c3c(C(F)(F)F)cccc23)c(O)c1 [Example 70, 4-[1-cyclobutyl-7-(trifluoromethyl)-1H-indazol-3-yl]benzene-1,3-diol]",–
48%,18 nM,"CC(C)n1nc(-c2ccc(O)cc2O)c2cccc(Cl)c21 [Example 80, 4-(7-chloro-1-isopropyl-1H-indazol-3-yl)benzene-1,3-diol]",–

Emax [1],IC50,SMILES,Emax [2]
68%,191 nM,"C=CCn1nc(-c2ccc(O)cc2C)c2cccc(Cl)c21 [Example 82, 4-(1-allyl-7-chloro-1H-indazol-3-yl)-3-methylphenol]",–
82%,–,"Cc1cc(O)ccc1-c1nn(C(C)C)c2c(C(F)(F)F)cccc12 [Example 83, 4-[1-isopropyl-7-(trifluoromethyl)-1H-indazole-3-yl]-3-methylphenol]",–
75%,36 nM,"Cc1cc(O)ccc1-c1nn(C2CCCC2)c2c(Cl)cccc12 [Example 84, 4-(7-chloro-1-cyclopentyl-1H-indazole-3-yl)-3-methylphenol]",–
46%,235 nM,"C=CCn1nc(-c2ccc(O)cc2O)c2cccc(Cl)c21 [Example 85, 4-(1-allyl-7-chloro-1H-indazole-3-yl)benzene-1,3-diol]",–
74%,419 nM,"Oc1ccc(-c2nn(C3CCCC3)c3c(F)cccc23)c(O)c1 [Example 88, 4-(1-cyclopentyl-7-fluoro-1H-indazole-3-yl)benzene-1,3-diol]",–
97%,435 nM,"CC(C)n1nc2c(F)cccc2c1-c1ccc(O)cc1O [Example 89, 4-(7-fluoro-2-isopropyl-2H-indazole-3-yl)benzene-1,3-diol]",–
87%,228 nM,"CCCn1nc2c(F)cccc2c1-c1ccc(O)cc1C [Example 92, 4-(7-fluoro-2-propyl-2H-indazole-3-yl)-3-methylphenol]",–
60%,128 nM,"CCCn1nc(-c2ccc(O)cc2C)c2cccc(F)c21 [Example 93, 4-(7-fluoro-1-propyl-1H-indazole-3-yl)-3-methylphenol]",–
86%,332 nM,"CC(C)Cn1nc(-c2ccc(O)cc2O)c2cccc(F)c21 [Example 94, 4-(7-fluoro-1-isobutyl-1H-indazole-3-yl)benzene-1,3-diol]",–
78%,88 nM,"Cc1cc(O)ccc1-c1nn(CC(C)C)c2c(F)cccc12 [Example 96, 4-(7-fluoro-1-isobutyl-1H-indazole-3-yl)-3-methylphenol]",–
61%,505 nM,"Oc1ccc(-c2nn(-c3ccsc3)c3c(Cl)cccc23)cc1 [Example 101, 4-(7-chloro-1-thien-3-yl-1H-indazole-3-yl)phenol]",–
79%,138 nM,"CCCn1nc(-c2ccc(O)cc2)c2cccc(-c3ccc(O)cc3)c21 [Example 103, 4-[3-(4-hydroxyphenyl)-1-propyl-1H-indazole-7-yl]phenol]",–
81%,250 nM,"CCCn1nc(-c2ccc(O)cc2)c2cccc(-c3ccc(F)cc3)c21 [Example 104, 4-[7-(4-Fluorophenyl)-1-propyl-1H-indazole-3-yl]phenol]",–
66%,918 nM,"CCCn1nc(-c2ccc(O)cc2)c2cccc(N3CCOCC3)c21 [Example 105, 4-(7-Morpholin-4-yl-1-propyl-1H-indazole-3-yl)phenol]",–
78%,214 nM,"CCCn1nc(-c2ccc(O)cc2)c2cccc(-c3ccccc3)c21 [Example 111, 4-(7-phenyl-1-propyl-1H-indazol-3-yl)phenol]",–
48%,667 nM,"CC(C)(C)C(=O)Oc1ccc(-c2nn(C3CCCC3)c3c(F)cccc23)cc1 [Example 112, 4-(1-cyclopentyl-7-fluoro-1H-indazol-3-yl)phenyl pivalate]",–
67%,268 nM,"CC(=O)Oc1ccc(-c2nn(C3CCCC3)c3c(F)cccc23)cc1 [Example 114, 4-(1-cyclopentyl-7-fluoro-1H-indazol-3-yl)phenyl acetate]",–
78%,350 nM,"CCCn1nc(-c2ccc(OC(=O)CC(C)(C)C)cc2)c2cccc(Cl)c21 [Example 122, 4-(7-chloro-1-propyl-1H-indazol-3-yl)phenyl 3,3-dimethylbutanoate]",–
71%,328 nM,"CCCn1nc(-c2ccc(OC(=O)CC)cc2)c2cccc(Cl)c21 [Example 123, 4-(7-chloro-1-propyl-1H-indazol-3-yl)phenyl propionate]",–
128%,479 nM,"Cn1nc(-c2ccc(O)cc2)c2cc(F)c(Cl)cc21 [Example 125, 4-(6-chloro-5-fluoro-1-methyl-1H-indazol-3-yl)phenol]",–

SMILES,Emax [1],IC50,Emax [2]
"CCNC(=O)Oc1ccc(-c2nn(C3CCCC3)c3c(F)cccc23)cc1 [Example 118, 4-(1-cyclopentyl-7-fluoro-1H-indazol-3-yl)phenyl ethylcarbamate]",–,418 nM,66%

# — patent publication US7241791B2, “Substituted 4-(indazol-3-yl)phenols” (Wyeth, priority 2002, dated 2007)
